Test systems include LOX IMVI melanoma; HCT-116 colon; SK-OV-3 ovarian; RXF 393 renal; CCRF-CEM leukemia; MDA-MB-435; COLO 205 colon; HCC-2998 colon.
Common to all, as to assay: NCI anticancer screen, dose series, 48 h

Each structure is given as a SMILES string. Where “and” joins values, the source holds several entries; their conditions need not be identical. Equal entries are not always repeated.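 Each compound was tested at five concentrations against cells in 96-well plates for 48 hours. Definition used: TGI = concentration required for complete inhibition of growth.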 Some results are limits rather than exact numbers.

Take `CC(=O)c1ccc2c3c1O[C@H]1c4[nH]c5ccccc5c4C[C@@]4(O)[C@@H](C2)N(CC2CC2)CC[C@]314`: the TGI in the experiment on LOX IMVI melanoma amounted to 33 µM; in the experiment on HCT-116 colon it was 28.9 µM; in the experiment with SK-OV-3 ovarian it was 35.9 µM; with RXF 393 renal, 27.3 µM; with CCRF-CEM leukemia it was 28.2 µM; with MDA-MB-435, 32.5 µM. Also, the TGI with COLO 205 colon was 30.8 µM.

For `COc1ccc(C2=NNC(c3cc4cc(Br)ccc4nc3Cl)C2)cc1` (configuration not stated), the TGI was > 25 µM in the experiment on HCT-116 colon; 5.28 µM in the experiment on CCRF-CEM leukemia; > 25 µM in the experiment with MDA-MB-435; > 25 µM in the experiment with COLO 205 colon; > 25 µM in the experiment on HCC-2998 colon.

In the case of `CC1=NN(C(=O)Cc2ccccc2)C(=O)/C1=C\c1ccccc1O`, the TGI with LOX IMVI melanoma, in the experiment on HCT-116 colon, in the experiment on SK-OV-3 ovarian, in the experiment on RXF 393 renal, in the experiment with CCRF-CEM leukemia and in the experiment on COLO 205 colon was > 100 µM each time. Moreover, the TGI in the experiment with HCC-2998 colon was > 100 µM.

Regarding `C=CCOCn1ccc(N)nc1=O`, the TGI with LOX IMVI melanoma, in the experiment with HCT-116 colon, in the experiment with SK-OV-3 ovarian, with CCRF-CEM leukemia, in the experiment on MDA-MB-435 and in the experiment on COLO 205 colon was > 100 µM throughout. Besides, in the experiment on HCC-2998 colon, the TGI is > 100 µM.

On to `O=C1CCC2(c3ccc(Cl)cc3)Nc3ncncc3N12` (configuration not stated), for which the TGI in the experiment on LOX IMVI melanoma, with SK-OV-3 ovarian, with CCRF-CEM leukemia, with MDA-MB-435 and in the experiment on HCC-2998 colon was > 10 µM each time.

`NC1=Nc2ccccc2Sc2nc3ccccc3n21`: the TGI in the experiment with LOX IMVI melanoma is > 100 µM; with HCT-116 colon, 32.8 µM; in the experiment on SK-OV-3 ovarian, 77.9 µM; in the experiment on RXF 393 renal, > 100 µM; in the experiment on CCRF-CEM leukemia it was > 100 µM; in the experiment on COLO 205 colon it was > 100 µM.

For `CO[C@]12CC(=O)C3(C(C[C@H]4CC5CC[C@H]6C[C@@H](OC(C)=O)CC[C@]6(OC(C)=O)C5C[C@@]43C)C1)C1C[C@H]3[C@@H]4CC[C@H]5C[C@@H](OC(C)=O)CC[C@]5(OC(C)=O)[C@H]4CC[C@]3(C)C12` (some centres not stated), the TGI in the experiment on LOX IMVI melanoma, with HCT-116 colon, with SK-OV-3 ovarian, with CCRF-CEM leukemia, with MDA-MB-435 and in the experiment on COLO 205 colon was > 100 µM in each case. Moreover, the TGI with HCC-2998 colon was > 100 µM.

For the compound `Cc1c2oc3c(C)cc(F)c(C(=O)NC4C(=O)NC(C(C)C)C(=O)N5CCCC5C(=O)N(C)CC(=O)N(C)C(C(C)C)C(=O)OC4C)c3nc-2c(C(=O)NC2C(=O)NC(C(C)C)C(=O)N3CCCC3C(=O)N(C)CC(=O)N(C)C(C(C)C)C(=O)OC2C)c(N)c1=O` (configuration not stated), the TGI in the experiment on LOX IMVI melanoma was 0.159 µM; in the experiment on SK-OV-3 ovarian it was > 100 µM; in the experiment on RXF 393 renal, 0.391 µM; with CCRF-CEM leukemia, 0.0385 µM and 0.309 µM; with MDA-MB-435, 1.42 µM and 1.19 µM; in the experiment with COLO 205 colon it was 0.286 µM and 0.354 µM.

On to `COc1cc(C2c3cc(OC)c(OC)c(O)c3C(=O)C3CCC(=O)N32)cc(OC)c1OC` (configuration not stated), for which the TGI is > 100 µM in the experiment with LOX IMVI melanoma; > 100 µM in the experiment with HCT-116 colon; > 100 µM in the experiment on SK-OV-3 ovarian; 39.5 µM with MDA-MB-435; 71.9 µM in the experiment with COLO 205 colon; > 100 µM with HCC-2998 colon.

In the case of `Cc1c2cccc-2c(OCCOC(=O)n2ccnc2)cc2c1[nH]c1ccccc12`, the TGI in the experiment on LOX IMVI melanoma amounted to 3.86 µM; with HCT-116 colon it was 10.3 µM; with SK-OV-3 ovarian, 18.8 µM; with MDA-MB-435, 9.69 µM; with HCC-2998 colon, 12.1 µM.

As for `O=Cc1c(Br)[nH]c2ccccc12`, the TGI in the experiment with LOX IMVI melanoma, in the experiment on HCT-116 colon, with SK-OV-3 ovarian, in the experiment on RXF 393 renal, in the experiment on CCRF-CEM leukemia and in the experiment on COLO 205 colon was > 100 µM throughout. Moreover, in the experiment with HCC-2998 colon, the TGI is > 100 µM.

Turning to `CN(C)C=NCC(O)c1ccccc1` (configuration not stated), the TGI in the experiment on LOX IMVI melanoma, in the experiment with HCT-116 colon, in the experiment with SK-OV-3 ovarian, with RXF 393 renal, in the experiment with CCRF-CEM leukemia and with MDA-MB-435 was > 100 µM each time. Further, in the experiment with COLO 205 colon, the TGI is > 100 µM.

For the compound `COc1cc(S(=O)(=O)Nc2ccc(-c3csc(N4C(=O)C(C)SC4c4ccccc4)n3)cc2)ccc1Cl` (configuration not stated), the TGI in the experiment on LOX IMVI melanoma was > 100 µM; with HCT-116 colon, > 100 µM; with RXF 393 renal it was 47.4 µM; with CCRF-CEM leukemia, > 100 µM; with MDA-MB-435, > 100 µM; with COLO 205 colon, > 100 µM.

As for `Cc1ccc2c(=O)cc(Cc3csc4ccccc34)[nH]c2n1`, the TGI in the experiment with LOX IMVI melanoma was 40.6 µM; in the experiment on HCT-116 colon, > 100 µM; with SK-OV-3 ovarian, > 100 µM; with RXF 393 renal it was > 100 µM; in the experiment on CCRF-CEM leukemia, > 100 µM; in the experiment with MDA-MB-435, > 100 µM. For the same compound, the TGI with COLO 205 colon is > 100 µM.

Consider `COc1cc2c(c(OC)c1OC)-c1ccc(SC)c(=O)cc1[C@@H](NC(=O)c1ccc([N+](=O)[O-])cc1)CC2`, for which the TGI with LOX IMVI melanoma was 25 µM and > 100 µM; in the experiment on HCT-116 colon, 7.28 µM and 11.7 µM; in the experiment with SK-OV-3 ovarian, 0.0575 µM; with CCRF-CEM leukemia, 25 µM; in the experiment with COLO 205 colon, 25 µM; in the experiment with HCC-2998 colon it was 0.0151 µM.

As for `C[N+](C)(C)CC(=O)N/N=C(/Cc1nc2ccc([N+](=O)[O-])cc2[nH]c1=O)C(=O)Nc1cc(C(F)(F)F)ccc1Cl`, the TGI in the experiment with HCT-116 colon, in the experiment with SK-OV-3 ovarian, in the experiment on RXF 393 renal, with CCRF-CEM leukemia, with COLO 205 colon and in the experiment on HCC-2998 colon was > 100 µM throughout.

Turning to `O=NN1C(c2ccccc2)CCCC1c1ccccc1` (configuration not stated), the TGI is > 100 µM with LOX IMVI melanoma; > 100 µM with HCT-116 colon; > 82.3 µM with SK-OV-3 ovarian; > 100 µM in the experiment with RXF 393 renal; > 100 µM in the experiment with CCRF-CEM leukemia; > 100 µM with COLO 205 colon. Besides, the TGI in the experiment on HCC-2998 colon was > 100 µM.

For the compound `O=C1CC(C(COCc2ccccc2)OCc2ccccc2)CC(=O)N1` (configuration not stated), the TGI in the experiment on LOX IMVI melanoma, in the experiment on HCT-116 colon, in the experiment with CCRF-CEM leukemia, in the experiment with MDA-MB-435 and in the experiment with HCC-2998 colon was > 100 µM throughout.
